Experiment [1] relates to Rattus norvegicus. The experiment can be described thus: Cognitive enhancing effect in Wistar rat model of scopolamine-induced short term memory impairment assessed as increase in spontaneous alteration at 5 mg/kg measured by Y-maze method. In kind it is functional, organism-based.
In experiment [2] the test system is Rattus norvegicus. The experiment can be described thus: Cognitive enhancing effect in Wistar rat model of scopolamine-induced working memory impairment assessed as reduction in number of working memory errors at 5 mg/kg by Radial arm maze task. The format is functional, organism-based.
The species entered for experiment [3] is Rattus norvegicus. Kind of experiment: Anxiolytic activity in scopolamine-induced Wistar rat assessed as increase in time spent in open arm measured at 15 uM for 5 min by elevated plus maze test. The format is functional, organism-based.
For experiment [4], the species on record is Rattus norvegicus. The experiment can be described thus: Anxiolytic activity in scopolamine-induced Wistar rat assessed as increase in number of entries in open arm measured at 15 uM for 5 min by elevated plus maze test. In kind it is functional, organism-based.
Experiment [5] addresses T1, Tyrosine-protein phosphatase non-receptor type 1 (Homo sapiens) (UniProt P18031).
T1 sequence (whole entry): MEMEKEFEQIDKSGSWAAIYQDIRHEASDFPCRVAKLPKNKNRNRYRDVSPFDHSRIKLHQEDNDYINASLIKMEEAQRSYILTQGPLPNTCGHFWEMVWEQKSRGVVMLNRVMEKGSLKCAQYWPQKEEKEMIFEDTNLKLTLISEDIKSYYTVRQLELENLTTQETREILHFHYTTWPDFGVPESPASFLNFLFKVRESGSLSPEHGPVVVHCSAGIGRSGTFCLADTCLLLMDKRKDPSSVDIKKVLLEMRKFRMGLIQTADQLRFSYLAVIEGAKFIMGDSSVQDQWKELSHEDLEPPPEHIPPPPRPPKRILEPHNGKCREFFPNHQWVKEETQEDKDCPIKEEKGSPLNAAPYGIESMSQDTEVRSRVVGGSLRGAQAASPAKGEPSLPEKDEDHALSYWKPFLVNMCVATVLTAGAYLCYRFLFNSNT
The experiment can be described thus: Inhibition of […] (unknown origin) at 1 mM using pNPP as substrate.

For experiment [6], the species on record is Rattus norvegicus. The experiment can be described thus: Cognitive enhancing effect in Wistar rat model of scopolamine-induced reference memory impairment assessed as reduction in number of reference memory error at 15 uM by Radial arm maze task. The format is functional, organism-based.
The species entered for experiment [7] is Rattus norvegicus. Kind of experiment: Cognitive enhancing effect in Wistar rat model of scopolamine-induced working memory impairment assessed as reduction in number of working memory errors at 15 uM by Radial arm maze task. In kind it is functional, organism-based.
Experiment [8] deals with T2, Tyrosine-protein phosphatase non-receptor type 2 (Homo sapiens) (UniProt P17706).
T2 sequence (whole entry): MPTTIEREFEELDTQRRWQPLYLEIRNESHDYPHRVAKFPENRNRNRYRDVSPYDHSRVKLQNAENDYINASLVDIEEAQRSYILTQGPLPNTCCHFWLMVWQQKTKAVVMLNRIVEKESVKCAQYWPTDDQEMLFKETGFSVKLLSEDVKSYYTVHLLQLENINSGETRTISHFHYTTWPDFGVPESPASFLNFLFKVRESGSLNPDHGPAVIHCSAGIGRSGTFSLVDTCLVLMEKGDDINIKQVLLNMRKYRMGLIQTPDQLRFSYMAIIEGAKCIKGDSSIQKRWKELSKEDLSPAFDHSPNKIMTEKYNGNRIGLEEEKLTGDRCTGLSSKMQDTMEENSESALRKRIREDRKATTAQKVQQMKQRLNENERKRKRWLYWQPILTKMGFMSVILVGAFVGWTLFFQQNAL
Kind of experiment: Inhibition of TC-PTP (unknown origin) at 1 mM using pNPP as substrate.

For experiment [9], the species on record is Rattus norvegicus. Kind of experiment: Antidepressant activity in Wistar rat model of scopolamine-induced depressive like behavior assessed as increased swimming time at 15 uM measured after 24 hrs by forced swimming test. In kind it is functional, organism-based.
The test system of experiment [10] is HEK293. Kind of experiment: Inhibition of GluA2-STEP3 (unknown origin) protein-protein interaction expressed in HEK293 cells assessed as reduction in GluA2 dephosphorylation at pY876 residue at 0.1 mM incubated for 30 min by western blotting analysis. The format is cell-based. Conditions: Homo sapiens. For orientation: In western blotting, separated proteins are transferred to a membrane and probed.

Experiment [11] is filed under the species Rattus norvegicus. Kind of experiment: Antidepressant activity in Wistar rat model of scopolamine-induced depressive like behavior assessed as decrease in immobility time at 15 uM measured after 24 hrs by forced swimming test. The format is functional, organism-based.
For experiment [12], the species on record is Rattus norvegicus. The experiment can be described thus: Cognitive enhancing effect in Wistar rat model of scopolamine-induced short term memory impairment assessed as increase in spontaneous alteration at 15 uM measured by Y-maze method. In kind it is functional, organism-based.
The species named for another experiment is Homo sapiens. The experiment can be described thus: Inhibition of GluA2-STEP32 C/S mutant (unknown origin) protein-protein interaction at 0.1 to 1 mM by Western blotting based pulldown assay. The note with it: dose 0.1-1 mM.
Experiment [13] relates to Hippocampus. Kind of experiment: Effect on hippocampal population spike in Wistar rat assessed as increase in spike area and slope at 15 uM measured at 1 hr. The format is functional, tissue-based.
The test system of experiment [14] is Hippocampus. The experiment can be described thus: Effect on hippocampal population spike in Wistar rat assessed as increase in spike area and slope at 15 uM measured after 2 hrs. In kind it is functional, tissue-based.
For experiment [15], the system named is Hippocampus. Kind of experiment: Effect on hippocampal population spike in Wistar rat assessed as increase in amplitude at 15 uM measured after 3 hrs. The format is functional, tissue-based.
Experiment [16] has as its system HEK293. The experiment can be described thus: Inhibition of GluA2-STEP3 (unknown origin) protein-protein interaction expressed in HEK293 cells assessed as reduction in GluA2 dephosphorylation at pY876 residue at 1 mM incubated for 30 min by western blotting analysis. The format is cell-based. Conditions: Homo sapiens.
Experiment [17] has as its system Hippocampus. Kind of experiment: Effect on hippocampal population spike in Wistar rat assessed as decrease in population spike area at 1.5 mM measured upto 3 hrs. The note with it: time hrs <=3. The format is functional, tissue-based.

The source made the active and inactive calls. The calls are words filed in the database; no cut-off is given here. Square brackets hold non-standard residues; d marks the D form. Peptide text beside a SMILES is read from it. pY = N[C@@H](Cc1ccc(OP(=O)(O)O)cc1)C(=O)O

Our source for the Activity and inhibition values is ChEMBL document CHEMBL5038639, “Designed Peptide Inhibitors of STEP Phosphatase-GluA2 AMPA Receptor Interaction Enhance the Cognitive Performance in Rats” (J Med Chem, 2022).

On to `COc1cc2c(cc1OC)C(=O)C(CC1CCN(Cc3ccccc3)CC1)C2` (centres undefined), for which the result with Rattus norvegicus [1] and in the experiment with Rattus norvegicus [2] was Active.
As to `CC(=O)N[C@@H](Cc1ccc(O)cc1)C(=O)NCC(=O)N[C@@H](CCCNC(=N)N)C(=O)N[C@@H](CCCCN)C(=O)N[C@@H](CCCCN)C(=O)N[C@@H](CCCNC(=N)N)C(=O)N[C@@H](CCCNC(=N)N)C(=O)N[C@@H](CCC(N)=O)C(=O)N[C@@H](CCCNC(=N)N)C(=O)N[C@@H](CCCNC(=N)N)C(=O)N[C@@H](CCCNC(=N)N)C(=O)N[C@@H](C)C(=O)N[C@H](C(=O)N[C@@H](Cc1ccc(O)cc1)C(=O)N[C@@H](CCCCN)C(=O)N[C@@H](CCC(=O)O)C(=O)NCC(=O)N[C@@H](Cc1ccc(O)cc1)C(=O)N[C@@H](CC(N)=O)C(=O)N[C@H](C(=O)N[C@@H](Cc1ccc(OP(=O)(O)O)cc1)C(=O)NCC(N)=O)C(C)C)[C@@H](C)O` (Ac-YGRKKRRQRRRATYKEGYNV[pY]G-NH2), the result in the experiment listed under Rattus norvegicus [3], in the experiment filed under Rattus norvegicus [4], in the experiment filed under Rattus norvegicus [6], in the experiment listed under Rattus norvegicus [7], in the experiment filed under Rattus norvegicus [9] and in the experiment filed under Rattus norvegicus [11] was Active. In addition, in the experiment filed under Rattus norvegicus [12], the outcome was Active. Also, the inhibition entry (in [5]; in [8]; with HEK293 [10]; in the experiment filed under Homo sapiens) was “Active” in each case.
In the case of `CC(=O)N[C@@H](Cc1ccc(O)cc1)C(=O)NCC(=O)N[C@@H](CCCNC(=N)N)C(=O)N[C@@H](CCCCN)C(=O)N[C@@H](CCCCN)C(=O)N[C@@H](CCCNC(=N)N)C(=O)N[C@@H](CCCNC(=N)N)C(=O)N[C@@H](CCC(N)=O)C(=O)N[C@@H](CCCNC(=N)N)C(=O)N[C@@H](CCCNC(=N)N)C(=O)N[C@@H](CCCNC(=N)N)C(=O)N[C@@H](CCC(=O)O)C(=O)NCC(=O)N[C@@H](Cc1ccc(O)cc1)C(=O)N[C@@H](CC(N)=O)C(=O)N[C@H](C(=O)N[C@@H](Cc1ccc(OP(=O)(O)O)cc1)C(N)=O)C(C)C` (Ac-YGRKKRRQRRREGYNV[pY]-NH2), the outcome in the experiment listed under Rattus norvegicus [3], in the experiment listed under Rattus norvegicus [4], in the experiment listed under Rattus norvegicus [6], in the experiment filed under Rattus norvegicus [7], in the experiment filed under Rattus norvegicus [9] and in the experiment filed under Rattus norvegicus [11] was Active. Also, the outcome in the experiment listed under Rattus norvegicus [12] was Active. The inhibition entry (in [5]; in [8]; in the experiment on HEK293 [10]; in the experiment filed under Homo sapiens) was “Active” throughout.
As for `CC(=O)N[C@@H](Cc1ccc(O)cc1)C(=O)NCC(=O)N[C@@H](CCCNC(=N)N)C(=O)N[C@@H](CCCCN)C(=O)N[C@@H](CCCCN)C(=O)N[C@@H](CCCNC(=N)N)C(=O)N[C@@H](CCCNC(=N)N)C(=O)N[C@@H](CCC(N)=O)C(=O)N[C@@H](CCCNC(=N)N)C(=O)N[C@@H](CCCNC(=N)N)C(=O)N[C@@H](CCCNC(=N)N)C(=O)N[C@@H](CCC(=O)O)C(=O)NCC(=O)N[C@@H](Cc1ccc(O)cc1)C(=O)N[C@@H](CC(N)=O)C(=O)N[C@H](C(=O)N[C@@H](Cc1ccc(OP(=O)(O)O)cc1)C(=O)N[C@@H](CCC(=O)O)C(N)=O)C(C)C` (Ac-YGRKKRRQRRREGYNV[pY]E-NH2), the outcome in the experiment listed under Rattus norvegicus [3], in the experiment with Hippocampus [13], in the experiment listed under Rattus norvegicus [4], in the experiment with Hippocampus [15], in the experiment listed under Rattus norvegicus [6] and in the experiment filed under Rattus norvegicus [7] was Active. Moreover, the outcome in the experiment listed under Rattus norvegicus [9], in the experiment on Hippocampus [17], in the experiment listed under Rattus norvegicus [11] and in the experiment filed under Rattus norvegicus [12] was Active. Besides, the outcome with Hippocampus [14] was inactive. In addition, the inhibition entry (in experiment [5]; in the experiment on HEK293 [16]; in experiment [8]; with HEK293 [10]; in the experiment listed under Homo sapiens) was “Active” each time.
On to Ac-YGRKKRRQRRRATYKEGYNVYG-NH2, for which the outcome in the experiment listed under Rattus norvegicus [3], in the experiment filed under Rattus norvegicus [4], in the experiment filed under Rattus norvegicus [6], in the experiment filed under Rattus norvegicus [7], in the experiment filed under Rattus norvegicus [9] and in the experiment filed under Rattus norvegicus [11] was Active. For the same compound, the outcome in the experiment listed under Rattus norvegicus [12] was Active. Besides, the inhibition result in [5] and in experiment [8] was “Active” each time.
